{"source": "ChEMBL document CHEMBL4007434", "about": "“Indazole-Based Covalent Inhibitors To Target Drug-Resistant Epidermal Growth Factor Receptor” (J Med Chem, 2017)", "key": {"[1]": {"target": "T1, Epidermal growth factor receptor (Homo sapiens, UniProt P00533, L858R/T790M)", "assay": "Reversible inhibition of human N-terminal GST-tagged EGFR L858R/T790M double mutant cytoplasmic domain (669 to 1210 end amino acid residues) expressed in baculovirus expression system using TK peptide substrate preincubated for 2 to 90 mins followed by 6-fold dilution"}, "[2]": {"test_system": "Epidermal growth factor receptor (Homo sapiens), P00533 [L858R]"}, "[3]": {"target": "T2, Epidermal growth factor receptor (Homo sapiens, UniProt P00533)", "assay": "Reversible inhibition of wild-type human N-terminal GST-tagged EGFR cytoplasmic domain (669 to 1210 end amino acid residues) expressed in baculovirus expression system using TK peptide substrate assessed as inactivation constant preincubated for 2 to 90 mins followed by 6-fold dilution"}, "[4]": {"target": "T2, Epidermal growth factor receptor", "format": "ADME"}, "[5]": {"test_system": "Epidermal growth factor receptor (Homo sapiens), P00533 [L858R,T790M]", "settings": "1 uM"}, "[6]": {"assay": "Stability in human plasma assessed as compound remaining at 5 uM after 1 hr by LCMS analysis", "format": "ADME, cell-free", "settings": "read-out: Stability"}, "[7]": {"test_system": "Epidermal growth factor receptor (Homo sapiens), P00533 [T790M]", "assay": "Binding affinity to EGFR T790M mutant (unknown origin) assessed as covalent adduct formation at 100 uM after 1 hr by ESI-MS analysis"}, "[8]": {"test_system": "Epidermal growth factor receptor (Homo sapiens), P00533 [L861Q]", "settings": "1 uM"}, "[9]": {"target": "Receptor tyrosine-protein kinase erbB-4 (Homo sapiens) (UniProt Q15303)", "sequence (Q15303 whole entry, the tested form may be a part)": "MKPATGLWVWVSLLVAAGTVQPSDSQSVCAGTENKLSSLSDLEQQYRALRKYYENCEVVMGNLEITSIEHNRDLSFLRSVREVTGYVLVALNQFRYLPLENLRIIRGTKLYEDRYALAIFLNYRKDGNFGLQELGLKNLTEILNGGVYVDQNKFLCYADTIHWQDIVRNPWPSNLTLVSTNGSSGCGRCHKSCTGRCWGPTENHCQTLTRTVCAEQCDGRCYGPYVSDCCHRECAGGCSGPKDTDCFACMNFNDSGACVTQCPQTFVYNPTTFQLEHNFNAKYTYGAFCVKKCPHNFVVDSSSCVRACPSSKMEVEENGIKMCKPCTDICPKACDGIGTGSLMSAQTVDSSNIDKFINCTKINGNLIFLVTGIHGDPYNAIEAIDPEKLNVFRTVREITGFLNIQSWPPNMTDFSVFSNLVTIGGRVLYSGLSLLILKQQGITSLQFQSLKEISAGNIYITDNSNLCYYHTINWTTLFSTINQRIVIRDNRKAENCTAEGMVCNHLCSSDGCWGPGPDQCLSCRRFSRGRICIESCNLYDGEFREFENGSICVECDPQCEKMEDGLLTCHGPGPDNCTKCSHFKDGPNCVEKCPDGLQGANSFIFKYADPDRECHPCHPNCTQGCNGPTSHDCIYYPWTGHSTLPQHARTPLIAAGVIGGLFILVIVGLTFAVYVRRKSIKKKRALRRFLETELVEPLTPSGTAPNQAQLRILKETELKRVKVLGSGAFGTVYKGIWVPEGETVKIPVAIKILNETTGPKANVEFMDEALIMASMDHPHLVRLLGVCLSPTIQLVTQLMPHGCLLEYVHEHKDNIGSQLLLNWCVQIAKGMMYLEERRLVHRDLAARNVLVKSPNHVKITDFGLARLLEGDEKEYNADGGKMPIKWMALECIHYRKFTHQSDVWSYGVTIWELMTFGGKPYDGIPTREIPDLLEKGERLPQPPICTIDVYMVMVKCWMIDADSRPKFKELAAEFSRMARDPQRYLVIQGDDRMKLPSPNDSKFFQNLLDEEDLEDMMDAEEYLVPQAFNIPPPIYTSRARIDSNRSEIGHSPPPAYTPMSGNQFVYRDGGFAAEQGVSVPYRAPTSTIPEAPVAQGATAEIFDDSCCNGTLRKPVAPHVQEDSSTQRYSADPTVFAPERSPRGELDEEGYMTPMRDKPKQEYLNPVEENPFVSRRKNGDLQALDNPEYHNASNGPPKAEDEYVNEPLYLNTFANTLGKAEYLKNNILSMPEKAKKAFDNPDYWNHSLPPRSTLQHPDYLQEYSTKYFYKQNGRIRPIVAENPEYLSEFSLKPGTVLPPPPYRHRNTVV", "assay": "Inhibition of recombinant truncated human His/IgG1 Fc-tagged ERBB4 expressed in mammalian expression system at 1 uM by Z'-LYTE assay"}, "[10]": {"target": "T1, Epidermal growth factor receptor"}, "[11]": {"target": "T3, Tyrosine-protein kinase JAK3 (Homo sapiens) (UniProt P52333)", "T3 sequence (whole entry)": "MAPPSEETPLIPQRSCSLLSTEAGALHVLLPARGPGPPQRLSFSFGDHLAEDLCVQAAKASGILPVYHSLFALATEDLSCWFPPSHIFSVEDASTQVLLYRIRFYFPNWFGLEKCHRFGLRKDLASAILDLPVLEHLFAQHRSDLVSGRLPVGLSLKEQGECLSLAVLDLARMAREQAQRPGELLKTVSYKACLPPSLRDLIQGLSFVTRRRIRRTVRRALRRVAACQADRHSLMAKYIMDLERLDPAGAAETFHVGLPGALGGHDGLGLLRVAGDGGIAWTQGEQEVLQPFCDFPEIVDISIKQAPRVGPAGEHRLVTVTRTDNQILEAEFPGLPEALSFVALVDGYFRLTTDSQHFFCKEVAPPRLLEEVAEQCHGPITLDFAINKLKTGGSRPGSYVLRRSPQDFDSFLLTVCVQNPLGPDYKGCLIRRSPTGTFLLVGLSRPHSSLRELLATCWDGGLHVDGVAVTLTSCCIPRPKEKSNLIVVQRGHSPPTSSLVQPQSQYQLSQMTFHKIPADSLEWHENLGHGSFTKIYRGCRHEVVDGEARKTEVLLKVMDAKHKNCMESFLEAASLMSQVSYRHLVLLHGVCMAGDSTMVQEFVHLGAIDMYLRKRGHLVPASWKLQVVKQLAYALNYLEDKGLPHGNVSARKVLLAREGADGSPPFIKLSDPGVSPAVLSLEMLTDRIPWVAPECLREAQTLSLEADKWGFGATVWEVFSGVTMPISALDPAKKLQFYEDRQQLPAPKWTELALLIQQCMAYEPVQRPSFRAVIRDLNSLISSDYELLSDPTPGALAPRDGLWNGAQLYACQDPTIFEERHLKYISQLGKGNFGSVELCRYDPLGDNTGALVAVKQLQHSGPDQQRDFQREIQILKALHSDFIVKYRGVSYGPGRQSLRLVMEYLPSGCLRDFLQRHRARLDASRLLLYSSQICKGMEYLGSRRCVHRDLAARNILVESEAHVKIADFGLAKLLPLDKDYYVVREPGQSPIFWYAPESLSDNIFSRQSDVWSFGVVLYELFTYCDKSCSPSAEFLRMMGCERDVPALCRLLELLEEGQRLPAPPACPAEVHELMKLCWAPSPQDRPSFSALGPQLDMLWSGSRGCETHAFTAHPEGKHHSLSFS", "assay": "Inhibition of recombinant human GST-tagged cytoplasmic JAK3 (781 to 1124 amino acid residues) catalytic domain expressed in baculovirus expression system at 1 uM by Z'-LYTE assay"}, "[12]": {"test_system": "Epidermal growth factor receptor (Homo sapiens), P00533 [T790M]", "settings": "1 uM"}, "[13]": {"target": "Epidermal growth factor receptor (Homo sapiens, UniProt P00533, L858R)", "assay": "Reversible inhibition of human N-terminal GST-tagged EGFR L858R mutant cytoplasmic domain (669 to 1210 end amino acid residues) expressed in baculovirus expression system using TK peptide substrate preincubated for 2 to 90 mins followed by 6-fold dilution"}, "[14]": {"test_system": "Liver", "assay": "Stability in mouse liver microsomes at 3 uM up to 50 mins by LCMS analysis", "format": "ADME, microsome"}, "[15]": {"target": "T4, Tyrosine-protein kinase TXK (Homo sapiens) (UniProt P42681)", "T4 sequence (whole entry)": "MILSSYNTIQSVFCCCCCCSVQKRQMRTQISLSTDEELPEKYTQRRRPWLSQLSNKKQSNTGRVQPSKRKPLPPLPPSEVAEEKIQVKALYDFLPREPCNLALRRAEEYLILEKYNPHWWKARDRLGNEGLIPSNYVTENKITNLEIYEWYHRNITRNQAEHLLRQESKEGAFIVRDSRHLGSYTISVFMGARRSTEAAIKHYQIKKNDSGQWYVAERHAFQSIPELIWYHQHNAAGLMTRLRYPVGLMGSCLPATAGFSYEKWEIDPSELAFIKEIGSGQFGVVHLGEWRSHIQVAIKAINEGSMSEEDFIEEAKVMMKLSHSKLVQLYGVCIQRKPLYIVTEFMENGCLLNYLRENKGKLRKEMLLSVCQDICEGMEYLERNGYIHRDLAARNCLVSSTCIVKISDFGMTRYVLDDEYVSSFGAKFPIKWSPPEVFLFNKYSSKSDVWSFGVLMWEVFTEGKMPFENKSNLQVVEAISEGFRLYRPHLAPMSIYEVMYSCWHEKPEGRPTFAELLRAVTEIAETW", "assay": "Inhibition of full-length recombinant human N-terminal GST-tagged cytoplasmic TXK (260 to 527 amino acid residues) expressed in baculovirus expression system at 1 uM by Z'-LYTE assay"}, "[16]": {"test_system": "Liver", "assay": "Stability in human liver microsomes at 3 uM up to 50 mins by LCMS analysis", "format": "ADME, microsome"}, "[17]": {"test_system": "Epidermal growth factor receptor (Homo sapiens), P00533 [L858R,T790M]", "settings": "100 nM"}}, "note": "The source made the active and inactive calls. The rule behind the calls is not given here."}
{"smiles": "C=CC(=O)Nc1cc(Nc2n[nH]c3cc(Nc4cccc(F)c4)ccc23)c(OC)cc1N(C)CCN(C)C", "values": [{"measurement": "Ki", "setting": "[1]", "value": 7.4, "unit": "nM"}, {"measurement": "Kinact", "setting": "[2]", "value": 0.09, "unit": "min⁻¹"}, {"measurement": "kinact", "setting": "[3]", "value": 0.00233, "unit": "s⁻¹"}, {"measurement": "IC50", "setting": "[4]", "value": "< 1", "unit": "nM"}, {"measurement": "inhibition", "setting": "[5]", "value": "> 95", "unit": "%"}, {"measurement": "remaining at 1 h, 5 µM", "setting": "[6]", "value": "> 75", "unit": "%"}, {"measurement": "Activity", "setting": "[7]", "value": "Active"}, {"measurement": "inhibition", "setting": "[8]", "value": "> 95", "unit": "%"}, {"measurement": "inhibition", "setting": "[9]", "value": "Active"}, {"measurement": "IC50", "setting": "[10]", "value": "< 1", "unit": "nM"}, {"measurement": "inhibition", "setting": "[11]", "value": "> 85", "unit": "%"}, {"measurement": "inhibition", "setting": "[12]", "value": "> 95", "unit": "%"}, {"measurement": "Ki", "setting": "[13]", "value": 3.9, "unit": "nM"}, {"measurement": "Stability", "setting": "[14]", "value": "Stable"}, {"measurement": "inhibition", "setting": "[15]", "value": "> 85", "unit": "%"}, {"measurement": "Stability", "setting": "[16]", "value": "Stable"}, {"measurement": "inhibition", "setting": "[17]", "value": "Active"}]}
